Experimental data taken from PMC3608737, “Odorant Metabolism Catalyzed by Olfactory Mucosal Enzymes Influences Peripheral Olfactory Responses in Rats” (PLoS ONE, 2013).

Assays:
olfactory epithelium [1] = conditions: for EOG amplitude compared with parent compound (coumarin or 4-MC): 1, 10 and 100 µM, normalized to IBMX; for EOG amplitude compared with parent compound (coumarin or 4-MC) / EOG response compared with quinoline: vehicle 0.01% DMSO; for EOG response compared with quinoline: 100 µM, normalized to IBMX responses
Description: Odorant stock solutions (1 M) were prepared in DMSO. Working solutions were prepared extemporaneously by diluting stock solutions with the Ringer solution. […] The IBMX stock solution (10 mM) was also prepared in DMSO. This stock solution was diluted 100-fold with the Ringer solution to produce a working solution (100 µM) containing 0.1% DMSO.
To assess sensory responses induced by odorant stimulation of the olfactory mucosa, we recorded EOGs. […] Rats were sacrificed by CO2 exposure and decapitated. The head was hemisected and the nasal septum was carefully removed to expose the endoturbinate system of the main olfactory system. The tissue was then superfused continuously (5 mL/min) at room temperature (22–25°C) with modified Ringer buffer containing 140 mM NaCl, 5 mM KCl, 2 mM CaCl2, 2 mM MgCl2, 10 mM HEPES [4-(2-hydroxyethyl)-1-piperazineethanesulfonic acid], adjusted to pH 7.2 and to 320 mOsm.L^−1 with glucose. Odorant stimuli were applied to the turbinates using a custom-built odorant delivery system consisting of a Rheodyne six-port injection valve equipped with a 200-µL loop. This valve injects odorant into the continuous stream of the Ringer solution. The distal part of the delivery system was fixed to a micromanipulator and adjusted to produce uniform flow in the vicinity of the recording electrode. The recording electrode was an Ag/AgCl wire positioned in a disposable pipette tip filled with a conductive gel (WPI, Sarasota, USA). The reference electrode was an 8-mm diameter Ag/AgCl disk covered with conductive gel that was placed under the rat hemi-head. Electrical signals were amplified using an AC/DC differential amplifier (A-M Systems, model 3000, Phymep, Paris, France), run through a low-pass filter of 300 Hz, digitized at 100 Hz using a Digidata 1440A interface board (Axon Instruments, DIPSI Industrie, Châtillon, France) and acquired using Axoscope 10.2 software (Axon Instruments). The data were analyzed using Clampfit software (Axon Instruments). The peak amplitudes of EOG responses were measured at the maximum negative voltage deflection from baseline. The data were normalized by dividing the peak amplitude by the maximum amplitude elicited by 100 µM of IBMX, a phosphodiesterase inhibitor that activates the transduction pathway bypassing the receptor step.

mammalian ORs = tested on: mammalian ORs; parameters: method as in PMID 19261596; conditions: approximately 460 mammalian ORs; cited from earlier work
CYPs [2] = test: Inhibition of coumarin metabolite formation in olfactory microsomes; format: biochemical, rat; conditions: for IC50: substrate coumarin
Description: (§1) Animals were sacrificed by decapitation. […] The resulting pellet was resuspended in homogenization buffer. Hepatic subcellular fractions were prepared as described previously.
(§2) Coumarin Quinoline Isoamyl acetate
(§3) Subcellular fraction olfactory hepatic olfactory/hepatic olfactory/hepatic
(§4) microsomes microsomes microsomes S9

olfactory epithelium [3] = test: Effect of XME inhibitors on odorant-induced EOG responses; parameters: species or system rat
Description: Rats were sacrificed by CO2 exposure and decapitated. […] The data were analyzed using Clampfit software (Axon Instruments).
First, two series of odorant stimulations at 2-min intervals were performed with an 8-min recovery period between each series. Under control conditions, a 2-min interval is sufficient to recover normal response amplitude. Then, the inhibitor was diluted in the Ringer buffer (final concentration 400 µM) and applied to the olfactory turbinates at a rate of 2.5 mL/min for 20 min using the Rheodyne injection valve. The preparation was rinsed for 5 min with the Ringer buffer and the epithelium was stimulated by applying odorant using the same procedures as described above. EOG responses were recorded on endoturbinate IIb. IBMX was applied at the end of each measurement series for data normalization as described above. In addition to the peak maximum amplitude, the onset slope (10% to 90%) and the fast decay slope (90% to 40%) were measured and normalized to the corresponding EOG peak amplitude.

CYP = test: Quinoline/coumarin metabolism in microsomes from OM superfused with inhibitor for 20 min; format: biochemical, rat; conditions: 400 µM, superfusion 20 min
Description: Reactions were performed in triplicate at 37°C and were initiated by adding odorant to the mixtures after a 5-min pre-incubation period. […] Subsequently, the products were centrifuged at 12 000 g for 10 min. An aliquot of the supernatant (100 µl) was analyzed by reverse phase high performance liquid chromatography (HPLC) using a Waters HPLC system (Milford, MA, USA) equipped with a pump (model 600), an autosampler thermostat set at 10°C (model a717 plus), a photodiode array UV detector (model 996) and an Uptisphere C18-ODB column (5-µm particle size, 150×4.6 mm; Interchim, Montluçon, France). The effluent from the column was routed to an UV detector, which can scan wavelengths from 210 to 400 nm. […] The separation of coumarin and its metabolites was achieved using a solvent gradient program (at 0.6 mL/min) set at: 25% acetonitrile/75% formic acid (0.01% in water) for 10 min, a linear gradient to 80% acetonitrile for 20 min, hold at 80% acetonitrile for 10 min, and then return to the initial conditions.

carboxylesterases = test: Inhibition of isoamyl acetate hydrolysis in the olfactory S9 fraction; format: biochemical, rat
Description: as §1
(§5) Reactions involving isoamyl acetate were carried out for 10 min and were terminated by heating at 80°C for 15 min. After centrifugation at 12000 g for 10 min, isoamyl acetate metabolism was assessed by quantifying the acetate in a sample volume of 100 µL using an acetic acid assay kit (Megazyme, Bray, Ireland).
as §2, §3, §4

CYPs [4] = test: Inhibition of quinoline metabolism catalyzed by olfactory microsomes; format: biochemical, rat; conditions: for IC50: substrate quinoline
Description: as §1, §2, §3, §4

carboxylesterase = test: Isoamyl acetate metabolism in S9 from OM superfused with inhibitor for 20 min; format: biochemical, rat; conditions: 400 µM, superfusion 20 min
Description: To investigate the functional role of the olfactory XMEs, we recorded odorant-induced EOG responses before and after applying two phase I enzyme inhibitors, ABT and BNPP. First, we confirmed that superfusion of OM with ABT or BNPP was sufficient to inhibit CYP and carboxylesterase activities, respectively. For this purpose, the in vitro metabolism of quinoline, coumarin and isoamyl acetate was measured. All steps were performed as described previously except that the microsomal or S9 fractions were prepared from OM that had been superfused with inhibitors for 20 min. Superfusion of the OM with 400 µM of ABT or BNPP decreased the metabolism of quinoline/coumarin or isoamyl acetate, respectively, by approximately 30 to 80% (Fig. S6).
as §5

[5] = In vitro metabolism of coumarin by olfactory microsomes (HPLC); format: in vitro ADME, rat
Description: as §1, §2, §3, §4

[6] = In vitro metabolism of coumarin by hepatic microsomes (HPLC); format: in vitro ADME, rat; conditions: liver (hepatic microsomes) incubation
Description: as §1, §2, §3, §4

[7] = inhibitor 400 µM for 20 min, endoturbinate IIb

Cc1cc(=O)oc2ccccc12 [4-MC, 4-methyl-coumarin]
EOG amplitude compared with parent compound (coumarin or 4-MC) (olfactory epithelium [1]): lower in amplitude than the responses to coumarin

Cc1cc(=O)oc2cc(O)ccc12 [4-MU, 4-methylumbelliferone]
EOG amplitude compared with parent compound (coumarin or 4-MC) (olfactory epithelium [1]): significantly lower than those induced by their parent compounds

Cc1cc(=O)oc2cc(O[C@@H]3O[C@H](C(=O)O)[C@@H](O)[C@H](O)[C@H]3O)ccc12 [4-MU-G, 4-methylumbelliferone-β-D-glucuronide]
EOG amplitude compared with parent compound (coumarin or 4-MC) (olfactory epithelium [1]): did not elicit any measurable EOG response

O=c1cc(O)c2ccccc2o1 [4-OH-C, 4-hydroxycoumarin]
number of ORs activated (mammalian ORs): only activated one OR
EOG amplitude compared with parent compound (coumarin or 4-MC) (olfactory epithelium [1]): significantly lower than those induced by their parent compounds

O=c1ccc2ccc(O)cc2o1 [7-OH-C, 7-hydroxycoumarin]
EOG amplitude compared with parent compound (coumarin or 4-MC) (olfactory epithelium [1]): significantly lower than those induced by their parent compounds

Oc1cccc2cccnc12 [8-OH-Q, 8-hydroxyquinoline]
EOG response compared with quinoline (olfactory epithelium [1]): half of that elicited by quinoline

Nn1nnc2ccccc21 [ABT, 1-aminobenzotriazole]
inhibition of coumarin metabolite formation (CYPs [2]; inhibitor 400 µM): Ninety percent
IC50 (CYPs [2]; read-out: IC50 for inhibition of 3-hydroxycoumarin formation): 41 µM
IC50 (CYPs [2]; read-out: IC50 for inhibition of 6-hydroxycoumarin formation): 52 µM
IC50 (CYPs [2]; read-out: IC50 for inhibition of 7-hydroxycoumarin formation): 19 µM
effect on EOG responses to isoamyl acetate (olfactory epithelium [3]; ABT 400 µM for 20 min, endoturbinate IIb): did not affect
effect on onset and decay slopes of EOG recordings (olfactory epithelium [3]; inhibitor 400 µM for 20 min): unaffected
increase of maximum EOG amplitude elicited by coumarin (olfactory epithelium [3]; [7]): 43%
increase of maximum EOG amplitude elicited by quinoline (olfactory epithelium [3]; [7]): 32%
decrease of metabolism of quinoline/coumarin after superfusion of the OM (CYP): 30 to 80%
effect on isoamyl acetate hydrolysis (carboxylesterases; data not shown): no effect
decrease of the metabolism of quinoline (CYPs [4]; inhibitor 400 µM): approximately 80%
IC50 (CYPs [4]; read-out: IC50 for inhibition of quinoline-1-oxide formation): 134 µM
IC50 (CYPs [4]; read-out: IC50 for inhibition of quinoline-5,6-epoxide formation): 147 µM

O=[N+]([O-])c1ccc(OP(=O)(O)Oc2ccc([N+](=O)[O-])cc2)cc1 [BNPP, bis-p-nitro-phenylphosphate]
effect on coumarin metabolism (CYPs [2]; data not shown): not affected
effect on EOG responses elicited by coumarin (olfactory epithelium [3]; BNPP treatment, stated in the discussion only): but not those elicited by quinoline and coumarin
effect on onset and decay slopes of EOG recordings (olfactory epithelium [3]; inhibitor 400 µM for 20 min): did not modify
increase of maximal EOG response amplitude to isoamyl acetate (olfactory epithelium [3]; [7]): 30%
decrease of metabolism of isoamyl acetate after superfusion of the OM (carboxylesterase): 30 to 80%
IC50 (carboxylesterases; olfactory S9 fraction): 0.8 µM
effect on olfactory metabolism of quinoline (CYPs [4]; data not shown): not affected

[O-][n+]1cccc2ccccc21 [Q-1-O, quinoline-1-oxide]
EOG response compared with quinoline (olfactory epithelium [1]): half of that elicited by quinoline

CC(=O)O [acetic acid]
effect of repeated application on the OM (olfactory epithelium [1]): caused tissue damage

O=c1ccc2ccccc2o1 [coumarin]
rate of coumarin biotransformation ([5]; OM (olfactory microsomes) incubation): 13.3 nmol/min/mg protein
rate of coumarin biotransformation, OM versus liver incubation ([5]; OM higher than liver): 65 fold
number of ORs activated (mammalian ORs): 20
rate of coumarin biotransformation [6]: 0.2 nmol/min/mg protein

CC(C)CCO [isoamyl alcohol]
EOG response amplitude, lower than that elicited by isoamyl acetate (olfactory epithelium [1]; at any concentration (1, 10, 100 µM)): approximately 60%
